Measurements reported in ChEMBL document CHEMBL4715844, “Structure-based virtual screening and biological evaluation of novel non-bisphosphonate farnesyl pyrophosphate synthase inhibitors” (Eur J Med Chem, 2020).

Tests used:
[1] = biological target: T1, Farnesyl pyrophosphate synthase (Rattus norvegicus) (UniProt P05369); assay: Inhibition of rat FPPS expressed in Escherichia coli BL21 (DE3) using GPP and IPP as substrate at 10 uM incubated for 10 mins by microplate reader
T1 sequence (whole entry): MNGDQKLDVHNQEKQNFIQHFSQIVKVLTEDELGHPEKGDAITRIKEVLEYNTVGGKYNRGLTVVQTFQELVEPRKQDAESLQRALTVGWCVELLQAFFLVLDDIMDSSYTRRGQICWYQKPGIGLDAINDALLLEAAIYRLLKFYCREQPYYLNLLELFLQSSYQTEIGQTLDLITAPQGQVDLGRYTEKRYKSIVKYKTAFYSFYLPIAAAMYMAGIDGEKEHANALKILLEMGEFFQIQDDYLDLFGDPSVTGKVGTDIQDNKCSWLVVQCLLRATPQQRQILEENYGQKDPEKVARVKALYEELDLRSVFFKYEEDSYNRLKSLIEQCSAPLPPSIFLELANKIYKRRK

[2] = biological target: T2, Farnesyl pyrophosphate synthase (Rattus norvegicus, UniProt P05369); assay: Binding affinity to rat FPPS expressed in Escherichia coli BL21 (DE3) by isothermal titration calorimetry
T2 sequence (P05369 whole entry): T1 sequence (whole entry)

inhibition [1] [%]	Kd [2] [µM]	SMILES
13	181	O=C(CC1(O)C(=O)Nc2ccccc21)CC1(O)C(=O)Nc2ccccc21 (stereo not given)
28.9	72	CC(C)Oc1ccc(CNC(=O)C2CCCN(S(=O)(=O)N3CCOCC3)C2)cc1 (stereo not given)
23.4	442	CNS(=O)(=O)c1cn(CC(=O)Nc2cc(C)cc(C)c2)cc1S(=O)(=O)NC

The remaining lines, values behind:

SMILES	inhibition [1] [%]	Kd [2] [µM]
CC(=O)N[C@H]1[C@H](OCc2ccccc2)O[C@H](CO)[C@@H](O)[C@@H]1O	29.9	48.1
Cc1c(O[C@@H]2O[C@H](CO)[C@@H](O)[C@H](O)[C@H]2O)ccc2c3c(c(=O)oc12)CCCCC3	17.3	53.8
